# Experimental data: US20260207563A1, “UREA COMPOUNDS AS ACTIVATORS OF POTASSIUM CHANNELS KV7.2/7.3 USEFUL IN THE TREATMENT OF CNS AND PNS DISORDERS” (ANGELINI PHARMA S.P.A., priority 2022, published 2026)
# Tests used:
# Type in all cases: cell-based
# [1] = molecular target: T1, homomeric KV7.4 channel (KCNQ4) (Homo sapiens, UniProt P56696); assay: Automated patch-clamp (Qube) counter-screening assay against KV7.4 channel; settings: CHO-K1 cells expressing KV7.4; class by maximal shift in the Vhalf at 30 μM
# T1 construct: host or cells: CHO-K1
# From the text: Assessment of In Vitro Potency Against KV7.4 Channels
# A counter-screening assay was also developed on the Qube against the homomeric KV7.4 channel (KCNQ4, Uniprot ID P56696). The cell line used was a stably transfected CHO-K1 with constitutive KV7.4 expression supplied by Charles River Laboratories.
# CHO-K1 cells stably expressing KV7.4 channels were maintained in the following culture media: • Hams F-12 with GlutaMAX™ (Life Technologies 31765027), • 10% Fetal clone 2 serum (Perbio Science SH30066.03), and • 250 μg/ml Geneticin™ selective antibiotic (G418, Invitrogen 1013-027).
# (§1) Cell maintenance, preparation, recording conditions and voltage protocols were all identical to those above.
# (§2) Analysis of Data for Assessment of Potency
# (§3) 10 concentrations of test compounds were applied to individual wells in quadruplicate to assess potency as a 1 in 3 dilution series from the maximal concentration of 30 μM. The average shift in the voltage for half activation (Vhalf) for each concentration was used to generate concentration-response curves fitted with a 4-parameter logistic model to estimate the EC50 from the point of inflection of the curve and the maximal shift in the Vhalf from the top of the curve.
# (§4) The lower the EC50 value, the higher the potency of the analyzed compound. The selectivity criteria is assigned on the basis of the maximal shift in the Vhalf at 30 μM. […] In Table 3, ND means that selectivity was not determined.
# [2] = molecular target: T2, heteromeric KV7.2/KV7.3 channels (KCNQ2, KCNQ3) (Homo sapiens, UniProt O43525+O43526); assay: Automated patch-clamp (Sophion Qube 384) potency assay against KV7.2/KV7.3 channels; settings: CHO-K1/Kv7.2/Kv7.3 cells; for EC50: EC50 from concentration-response of shift in Vhalf, 10 concentrations up to 30 μM, read-out: Kv7.2/7.3 EC50; for Kv7.2/7.3 ΔV1/2: maximal shift in the Vhalf from the top of the curve
# T2 construct: expressed in transfected cells; host or cells: CHO-K1
# From the text: Assessment of In Vitro Potency Against KV7.2/KV7.3 Channels
# An automated patch-clamp assay on the Sophion Qube 384 was developed for potency testing to identify small molecule activators of heteromeric KV7.2/KV7.3 channels (KCNQ2, Uniprot ID 043526; KCNQ3, Uniprot 043525).
# The cell line used was a stably transfected CHO-K1 cell line with constitutive KV7.2/KV7.3 expression.
# CHO-K1/Kv7.2/Kv7.3 cells were maintained in the following culture media: • DMEM/F-12 with GlutaMAX™ (Gibco 31331-028), • 10% Fetal clone 2 serum (Perbio Science SH30066.03), • 1 mg/ml Geneticin™ selective antibiotic (G418, Invitrogen 1013027), and • 5 μg/ml BlasticidinS HCl (Invivogen Ant-bl-5).
# On the day of the experiment, cells were resuspended in serum free media, counted and diluted to a final concentration of 3.5×10^6 cells per ml of media.
# Cells were then placed onto the Sophion Qube 384 and rested for a minimum of 1 hour.
# The following solutions were used for recording: • extracellular solution (in mM): 145 NaCl, 4 KCl, 1 MgCl2, 2 CaCl2), 10 HEPES, 10 glucose, pH 7.4, 315-320 mOsm. • intracellular solution (in mM): 120 KCl, 5.74 CaCl2), 1.75 MgCl2, 10 EGTA, 10 HEPES, 5 Na2ATP, pH 7.2, adjusted to 315 mOsm with sucrose.
# After establishing the whole-cell configuration, cells were held at −80 mV throughout the experiment. A current-voltage (I-V) protocol stepping from −100 to +20 mV for 1 second was applied to measure Kv7.2/Kv7.3 currents, each step was followed by a 200 ms pulse to 0 mV to measure the tail currents. From the I-V protocol a Boltzmann fit was applied to generate activation curves. Data were sampled at 25 kHz and filtered at 5 kHz (Bessel). Data were produced using multihole QChips. The I-V protocol was applied several times to establish the response in control conditions (typically 0.3% DMSO) and in the presence of the test compound.
# Data were reviewed in Sophion Analyser version 6.5.2 (Sophion Bioscience) for recording quality and filters were applied to remove any failed wells. Leak subtraction was applied to all recordings. Data filters for multihole QChips were typically: seal resistance>4 MΩ, capacitance >20 pF, baseline VHalf between 0 to −40 mV, baseline holding current between −2 to 2 nA, baseline steady state current at 20 mV >4 nA unless otherwise stated.
# as §2, §3, §4
# [3] = molecular target: T3, heteromeric KV7.3/KV7.5 channel (KCNQ3, KCNQ5) (Homo sapiens, UniProt O43525+Q9NR82); assay: Automated patch-clamp counter-screening against KV7.3/KV7.5 channel; settings: HEK293 cells expressing Kv7.3/KV7.5; class by maximal shift in the Vhalf at 30 μM
# T3 construct: host or cells: HEK293
# Protocol: Assessment of in vitro potency against KV7.3/KV7.5 channels
# Counter-screening was also carried out against the heteromeric KV7.3/KV7.5 channel (KCNQ3, Uniprot ID 043525; KCNQ5, Uniprot ID Q9NR82). The cell line used was a stably transfected HEK293 cell line with constitutive Kv7.3 expression and tetracycline inducible KV7.5 expression supplied by Charles River Laboratories.
# Cells were maintained in the following culture media: • DMEM/F-12 with GlutaMAX™ (Life Technologies 31331-028), • 10% Tet Systems FCS (Clonetech 631106), • 500 μg/ml Geneticin™ selective antibiotic (G418, Invitrogen 1013-027), • 5 μg/ml Blasticidin S HCl (InvivoGen ant-bl-5), and • 100 μg/ml Zeocin (InvivoGen: ant-zn-5).
# as §1, §2, §3, §4
SMILES,EC50 [2],Kv7.2/7.3 ΔV1/2 [2],Kv7.4 selectivity criteria [1],Kv7.3/7.5 selectivity criteria [3]
O=C(NCc1ccnc(C(F)(F)F)c1)NCC1CCCCC1 [Compound 100],3940 nM,24.71 mV,A (Selective compounds showed Kv7.4 and/or Kv7.3/7.5 ΔV1/2 equal to or lower than 15 mV (letter A in table 3)),B (Non-selective compounds showed Kv7.4 and/or Kv7.3/7.5 ΔV1/2 higher than 15 mV (letter B in table 3))
O=C(NCc1ccnc(OCC(F)(F)F)c1)N[C@H]1C[C@H]2CC[C@@H]1O2 [Compound 236],11900 nM,31.52 mV,–,–
O=C(NCc1ccnc(OCC(F)(F)F)c1)N[C@H]1CCOc2cccc(F)c21 [Compound 189],2720 nM,32.95 mV,–,–
Cn1ncc(C(F)(F)F)c1COc1cc(CNC(=O)NCCC2(C(F)(F)F)CC2)ccn1 [Compound 246],1760 nM,22.48 mV,–,–
O=C(NCc1ccnc(OCC(F)(F)F)c1)N[C@@H]1COC[C@H]1Oc1ccc(F)cc1 [Compound 234],5260 nM,27.37 mV,–,–
O=C(NCc1ccnc(OCC(F)(F)F)c1)NCC12CC(F)(CO1)C2 [Compound 239],5100 nM,20.11 mV,–,–
C[C@@H](Oc1cc(CNC(=O)N[C@@H]2COc3ccc(F)cc32)ncn1)C(F)(F)F [Compound 208],8150 nM,23.96 mV,–,–
Cc1cccc2c1[C@@H](NC(=O)NCc1ccnc(OCC(F)(F)F)c1)CC2 [Compound 169],1400 nM,24.08 mV,–,–
O=C(NCc1ccnc(OCC(F)(F)F)c1)N[C@@H]1CCc2c(F)cc(F)cc21 [Compound 176],1090 nM,40.89 mV,–,–
O=C(NCCC1(C(F)(F)F)CC1)NCc1ccnc(OCC2CC2(F)F)c1 (stereo not drawn) [Compound 250],2580 nM,21.04 mV,–,–
O=C(NCc1ccnc(OCC(F)(F)F)c1)N[C@@H]1CC[C@H](c2ccccc2)C1 [Compound 196],1540 nM,56.75 mV,–,–
COc1ccc2c(c1)C[C@H](NC(=O)NCc1ccnc(OCC(F)(F)F)c1)CC2 [Compound 190],820 nM,20.58 mV,–,–
O=C(NCc1ccnc(OCC(F)(F)F)c1)N[C@@H]1CCOc2ccc(F)cc21 [Compound 170],1540 nM,42.82 mV,–,–
O=C(NCc1ccnc(OCC(F)(F)F)c1)N[C@@H]1CCSc2ccccc21 [Compound 174],1240 nM,47.65 mV,–,–
C[C@@H](Oc1cc(CNC(=O)N[C@@H](C2CC2)C(F)(F)F)ncn1)C(F)(F)F [Compound 223],7400 nM,41.12 mV,–,–
O=C(NCc1ccnc(OCC(F)(F)F)c1)NCC12CC(F)(C1)C2 [Compound 219],2260 nM,35.95 mV,–,–
O=C(NCc1ccnc(OCC(F)(F)F)c1)N[C@H]1CCOc2c(F)cccc21 [Compound 181],700 nM,24.16 mV,–,–
Cc1cccc2c1OCC[C@@H]2NC(=O)NCc1ccnc(OCC(F)(F)F)c1 [Compound 185],5390 nM,22.68 mV,–,–
O=C(NCc1ccnc(OCC(F)(F)F)c1)N[C@@H]1CCN(CC(F)(F)F)C1 [Compound 214],8950 nM,30.24 mV,–,–
O=C(NCc1ccnc(OCC(F)(F)F)n1)N[C@@H]1CCc2ccccc21 [Compound 171],1240 nM,48.06 mV,–,–
COc1ccc([C@H](CF)NC(=O)NCc2ccnc(OCC(F)(F)F)c2)cc1 [Compound 215],4170 nM,24.17 mV,–,–
O=C(NCc1ccnc(OCC(F)(F)F)c1)N[C@@H](C1CC1)C(F)(F)F [Compound 212],1490 nM,41.94 mV,–,–
CC1(C)C[C@H](NC(=O)NCc2ccnc(OCC(F)(F)F)c2)c2ccccc2O1 [Compound 200],2510 nM,25.04 mV,–,–
O=C(NCc1ccnc(OCC(F)(F)F)c1)NCC12CC(C(F)(F)F)(C1)C2 [Compound 228],970 nM,20.27 mV,–,–

# The next lines start with results.
EC50 [2],Kv7.2/7.3 ΔV1/2 [2],SMILES,Kv7.4 selectivity criteria [1],Kv7.3/7.5 selectivity criteria [3]
3180 nM,25.41 mV,N#Cc1cccc2c1CC[C@@H]2NC(=O)NCc1ccnc(OCC(F)(F)F)c1 [Compound 160],A (Selective compounds showed Kv7.4 and/or Kv7.3/7.5 ΔV1/2 equal to or lower than 15 mV (letter A in table 3)),A (Selective compounds showed Kv7.4 and/or Kv7.3/7.5 ΔV1/2 equal to or lower than 15 mV (letter A in table 3))
3420 nM,26.44 mV,O=C(NCc1ccnc(OCC(F)(F)F)c1)N[C@@H]1COc2cc(OC(F)(F)F)ccc21 [Compound 249],–,–
1550 nM,37.46 mV,COc1ccc2c(c1)[C@H](NC(=O)NCc1ccnc(OCC(F)(F)F)c1)CCO2 [Compound 182],–,–
11700 nM,29.76 mV,O=C(NCc1ccnc(OCC(F)(F)F)c1)N[C@@H]1C[C@@H]2CC[C@H]1O2 [Compound 237],–,–
1690 nM,47.09 mV,CC1(C)C[C@@H](NC(=O)NCc2ccnc(OCC(F)(F)F)c2)c2ccccc21 [Compound 192],–,–
1770 nM,20.02 mV,O=C(NCc1ccnc(OCC(F)(F)F)c1)N[C@H]1COC[C@@H]1c1ccc(F)cc1 [Compound 230],–,–
1430 nM,23.95 mV,O=C(NCc1ccnc(OCC(F)(F)F)c1)N[C@@H]1CN(CC(F)(F)F)C[C@H]1c1ccccc1 [Compound 232],–,–
680 nM,31.5 mV,O=C(NCc1ccnc(OCC(F)(F)F)c1)N[C@H](C1CC1)C(F)(F)F [Compound 213],–,–
2870 nM,20.92 mV,CO[C@@H]1CCOc2c(NC(=O)NCc3ccnc(OCC(F)(F)F)c3)cccc21 [Compound 203],–,–
6670 nM,39.68 mV,O=C(NCc1ccnc(OCC(F)(F)F)c1)N[C@@H]1CCO[C@@H](c2ccccc2)C1 [Compound 195],–,–
10200 nM,20.68 mV,O=C(NCc1ccnc(OCC(F)(F)F)n1)N[C@@H]1CCc2ccc(F)cc21 [Compound 167],–,–
290 nM,34.07 mV,O=C(NCc1ccnc(OCC(F)(F)F)c1)N[C@@H]1COc2ccccc2C1 [Compound 186],–,–
4540 nM,27.31 mV,COc1ccc([C@@H](C)NC(=O)NCc2ccnc(OCC(F)(F)F)c2)cc1 [Compound 210],–,–
